Reference: US20240261417A1, “SOS1 DEGRADING AGENT AND PREPARATION METHOD THEREFOR AND APPLICATION THEREOF” (SHANGHAI LEADINGTAC PHARMACEUTICAL CO. LTD., priority 2021, published 2024)

How the values were obtained:
KRAS-G12C/SOS1 = target: T1, KRAS-G12C/SOS1 (Homo sapiens, UniProt Q07889); experiment: KRAS-G12C/SOS1 binding assay (HTRF); conditions: inhibition of KRAS-G12C/SOS1 binding
T1 construct: purchased Cisbio 63ADKOOOCB16PEG
T1 sequence (Q07889 1-1333): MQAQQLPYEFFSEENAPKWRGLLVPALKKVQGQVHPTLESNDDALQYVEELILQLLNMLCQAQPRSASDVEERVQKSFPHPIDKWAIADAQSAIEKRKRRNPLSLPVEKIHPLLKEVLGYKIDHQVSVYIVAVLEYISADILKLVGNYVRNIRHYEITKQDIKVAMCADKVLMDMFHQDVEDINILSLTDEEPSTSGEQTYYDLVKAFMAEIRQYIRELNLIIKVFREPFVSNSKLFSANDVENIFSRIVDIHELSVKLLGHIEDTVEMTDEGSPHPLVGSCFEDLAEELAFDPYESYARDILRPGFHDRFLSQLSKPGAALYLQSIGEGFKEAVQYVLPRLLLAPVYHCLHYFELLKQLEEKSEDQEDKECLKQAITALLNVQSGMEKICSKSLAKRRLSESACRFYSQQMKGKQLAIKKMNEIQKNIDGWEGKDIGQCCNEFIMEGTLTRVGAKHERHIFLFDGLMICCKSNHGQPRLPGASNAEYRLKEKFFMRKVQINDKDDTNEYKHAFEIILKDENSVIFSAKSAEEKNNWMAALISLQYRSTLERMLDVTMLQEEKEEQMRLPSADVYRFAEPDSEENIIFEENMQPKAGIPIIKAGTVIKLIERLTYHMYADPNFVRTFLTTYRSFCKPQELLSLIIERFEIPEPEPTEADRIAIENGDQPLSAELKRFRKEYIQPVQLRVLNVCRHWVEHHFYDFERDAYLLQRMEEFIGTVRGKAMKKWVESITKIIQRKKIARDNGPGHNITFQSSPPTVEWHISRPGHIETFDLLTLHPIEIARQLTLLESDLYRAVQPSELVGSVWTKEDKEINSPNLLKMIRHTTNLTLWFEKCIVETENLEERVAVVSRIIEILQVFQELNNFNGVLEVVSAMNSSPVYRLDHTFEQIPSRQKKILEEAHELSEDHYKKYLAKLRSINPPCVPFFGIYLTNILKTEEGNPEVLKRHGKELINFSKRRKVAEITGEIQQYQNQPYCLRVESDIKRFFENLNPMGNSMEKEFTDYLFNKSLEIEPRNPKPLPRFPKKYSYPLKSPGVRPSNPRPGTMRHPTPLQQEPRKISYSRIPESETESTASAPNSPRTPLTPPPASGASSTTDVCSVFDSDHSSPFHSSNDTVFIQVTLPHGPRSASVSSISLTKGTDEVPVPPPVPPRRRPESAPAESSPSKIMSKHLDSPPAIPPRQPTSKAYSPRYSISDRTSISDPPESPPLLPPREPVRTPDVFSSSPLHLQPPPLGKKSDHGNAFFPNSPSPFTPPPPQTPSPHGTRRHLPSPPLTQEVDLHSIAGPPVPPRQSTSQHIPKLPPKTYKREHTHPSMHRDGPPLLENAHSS
Description: The following method was used to determine the extent of inhibition of KRAS-G12C/SOS1 binding by the preferred compounds of the present invention under in vitro conditions. In this method, the competitive inhibition of KRAS-G12C/SOS1 binding by the preferred compounds was assayed by the homogeneous time-resolved fluorescence (HTRF) technology using the KRAS-G12C/SOS1 binding assay kit (Cisbio, 63ADKOOOCB16PEG).
The experimental procedures were as follows (refer to the kit instructions for details): the compounds of the present invention were each firstly dissolved in DMSO at a concentration of 20 mM, and then diluted in an equal gradient with a buffer in the kit, so that the final concentrations of the test compounds in the reaction system were in a range of 10000 nM-0.04 nM, and the final concentration of DMSO was 0.5%. 2 μL of the compounds were each incubated with 4 μL of 1×Tag1-SOS1, 4 μL of 1×Tag2-KRAS-G12C (containing 10 μM guanosine triphosphate, GTP) at 25° C. for 15 min. Then 5 μL of 1× Anti-Tag1-Tb3+ and 5 μL of 1× Anti-Tag2-XL665 were added to the reaction system, and the mixture was incubated on ice for 3 h. After the incubation, the fluorescence intensity of each well was measured at the excitation wavelength of 337 nm, the fluorescence intensity of each well was read at the emission wavelengths of 620 nm and 665 nm on a microplate reader EnVision (PerkinElmer, 2105) in an HTRF mode, and the Ratio value was calculated by the formula Ratio=(665 nm/620 nm)×[…]. The inhibition rates of the compounds at each concentration were calculated by comparing the fluorescence intensity ratio with that of the control group, and then nonlinear curve fitting was performed by GraphPad Prism 8 in the logarithmic concentration-inhibition rate to obtain the IC50 values of the compounds, as shown in Table 1.

SOS1 protein = target: T2, SOS1 protein (Homo sapiens, UniProt Q07889); experiment: SOS1 degradation assay (Western blot), NCI-H358 cells; type: cell-based; parameters: The degradation of SOS1 by the compounds was investigated on KRAS G12C mutant human non-small cell lung cancer cells NCI-H358; host or cells: NCI-H358 (human cancer cell lines); conditions: SOS1 degradation, NCI-H358 cells, 24 h, Western blot; for DC50: read-out: NCI-H358 (G12C) DC50; for Dmax: read-out: NCI-H358 (G12C) Dmax
T2 sequence (Q07889 1-1333): T1 sequence (Q07889 1-1333)
How it was run: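 Cells at 5×10^5 per well were treated for 24 h at 37 °C with compound at 0.03–3000 nM final. SOS1 in lysates was measured by Western blot with chemiluminescent densitometry and normalised to the control group. DC50 and Dmax came from nonlinear fits against log concentration.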

IC50 (KRAS-G12C/SOS1) [nM]	DC50 (SOS1 protein) [nM]	Dmax (SOS1 protein) [%]	SMILES
≤ 15	100 to 500	50 to 80	COc1cc2nc(C)nc(N[C@H](C)c3cc(-c4c(Cl)cccc4CN(C)C)cs3)c2cc1[C@H]1CC[C@H](C(=O)N2CCC(OCCCC3CCN(C(=O)c4ccc(Cl)c(N5CCC(=O)NC5=O)c4)CC3)CC2)CC1 [Example 61, 1-(2-chloro-5-(4-(3-((1-((1R,4R)-4-(4-(((R)-1-(4-(2-chloro-6-((dimethylamino)methyl)phenyl)thien-2-yl)ethyl)amino)-7-methoxy-2-methylquinazolin-6-yl)cyclohexane-1-carbonyl)piperidin-4-yl)oxy)propyl)piperidine-1-carbonyl)phenyl)dihydropyrimidine-2,4(1H,3H)-dione]
≤ 15	< 50	50 to 80	Cc1nc(N[C@H](C)c2cc(N)cc(C(F)(F)F)c2)c2cc([C@H]3CC[C@H](C(=O)N4CCN(CC5CCC6(CC5)CCN(C(=O)c5ccc(Cl)c(N7CCC(=O)NC7=O)c5)CC6)CC4)CC3)c(C)cc2n1 [Example 72, 1-(5-(9-((4-((1R,4R)-4-(4-(((R)-1-(3-amino-5-(trifluoromethyl)phenyl)ethyl)amino)-2,7-dimethylquinazolin-6-yl)cyclohexane-1-carbonyl)piperazin-1-yl)methyl)-3-azaspiro[5.5]undecane-3-carbonyl)-2-chlorophenyl)dihydropyrimidine-2,4(1H,3H)-dione]
≤ 15	1000 to 10000	< 30	COc1cc2nc(C)nc(N[C@H](C)c3cc(-c4c(Cl)cccc4CN(C)C)cs3)c2cc1[C@H]1CC[C@H](C(=O)N2CCC(COCC3CCN(C(=O)c4ccc(Cl)c(N5CCC(=O)NC5=O)c4)CC3)CC2)CC1 [Example 65, 1-(2-chloro-5-(4-(((1-((1R,4R)-4-(4-(((R)-1-(4-(2-chloro-6-((dimethylamino)methyl)phenyl)thien-2-yl)ethyl)amino)-7-methoxy-2-methylquinazolin-6-yl)cyclohexane-1-carbonyl)piperidin-4-yl)methoxy)methyl)piperidine-1-carbonyl)phenyl)dihydropyrimidine-2,4(1H,3H)-dione]

Second part, the compound before the results:

SMILES	IC50 (KRAS-G12C/SOS1) [nM]	DC50 (SOS1 protein) [nM]	Dmax (SOS1 protein) [%]
CNCc1ccccc1-c1csc([C@@H](C)Nc2nc(C)nc3cc(OC)c([C@H]4CC[C@H](C(=O)N(C)CCCC5CCC6(CC5)CCN(C(=O)c5ccc(Cl)c(N7CCC(=O)NC7=O)c5)CC6)CC4)cc23)c1 [Example 49, (1R,4R)—N-(3-(3-(4-chloro-3-(2,4-dioxotetrahydropyrimidin-1(2H)-yl)benzoyl)-3-azaspiro[5.5]undecan-9-yl)propyl)-4-(7-methoxy-2-methyl-4-(((R)-1-(4-(2-((methylamino)methyl)phenyl)thien-2-yl)ethyl)amino)quinazolin-6-yl)-N-methylcyclohexane-1-carboxamide]	≤ 15	100 to 500	50 to 80
COc1cc2nc(C)nc(N[C@H](C)c3cc(-c4c(Cl)cccc4CN(C)C)cs3)c2cc1[C@H]1CC[C@H](C(=O)N2CCC(CCCCN3CCN(C(=O)c4ccc(Cl)c(N5CCC(=O)NC5=O)c4)CC3)CC2)CC1 [Example 56, 1-(2-chloro-5-(4-(4-(1-((1R,4R)-4-(4-(((R)-1-(4-(2-chloro-6-((dimethylamino)methyl)phenyl)thien-2-yl)ethyl)amino)-7-methoxy-2-methylquinazolin-6-yl)cyclohexane-1-carbonyl)piperidin-4-yl)butyl)piperazine-1-carbonyl)phenyl)dihydropyrimidine-2,4(1H,3H)-dione]	≤ 15	< 50	80 to 100
COCCOc1cc2nc(C)nc(N[C@H](C)c3cc(N)cc(C(F)(F)F)c3)c2cc1[C@H]1CC[C@H](C(=O)N2CCN(CC3CCC4(CC3)CCN(C(=O)c3ccc(Cl)c(N5CCC(=O)NC5=O)c3)CC4)CC2)CC1 [Example 43, 1-(5-(9-((4-((1R,4R)-4-(4-(((R)-1-(3-amino-5-(trifluoromethyl)phenyl)ethyl)amino)-7-(2-methoxyethoxy)-2-methylquinazolin-6-yl)cyclohexane-1-carbonyl)piperazin-1-yl)methyl)-3-azaspiro[5.5]undecane-3-carbonyl)-2-chlorophenyl)dihydropyrimidine-2,4(1H,3H)-dione]	≤ 15	< 50	50 to 80
